Drawing on ChEMBL document CHEMBL1201862, “PubChem BioAssay data set” (2004), this text covers EC50, AC50 and IC50 for 12 compounds.

Activity calls are given as the source filed them. Bounds are passed on as bounds.

Experiment [1] is described as follows: cells.
Experiment [2] deals with T1, Oxysterols receptor LXR-beta (Homo sapiens, UniProt P55055).
T1 sequence (P55055 whole entry): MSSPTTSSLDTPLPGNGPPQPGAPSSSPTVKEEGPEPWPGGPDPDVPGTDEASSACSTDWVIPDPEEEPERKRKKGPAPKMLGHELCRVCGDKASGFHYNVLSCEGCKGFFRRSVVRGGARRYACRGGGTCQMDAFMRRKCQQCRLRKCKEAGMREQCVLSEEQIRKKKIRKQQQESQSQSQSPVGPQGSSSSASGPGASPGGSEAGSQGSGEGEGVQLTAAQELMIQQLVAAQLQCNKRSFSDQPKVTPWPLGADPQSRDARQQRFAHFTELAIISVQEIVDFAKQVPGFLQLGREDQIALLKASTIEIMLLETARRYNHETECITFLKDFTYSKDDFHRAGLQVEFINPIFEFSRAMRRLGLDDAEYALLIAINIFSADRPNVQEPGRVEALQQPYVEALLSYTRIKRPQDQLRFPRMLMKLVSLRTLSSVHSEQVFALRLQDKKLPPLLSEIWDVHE
The class given is functional, cell-based.

Another experiment concerns the target T2, Protein RecA (Mycobacterium tuberculosis, UniProt P9WHJ3).
T2 sequence (P9WHJ3 whole entry): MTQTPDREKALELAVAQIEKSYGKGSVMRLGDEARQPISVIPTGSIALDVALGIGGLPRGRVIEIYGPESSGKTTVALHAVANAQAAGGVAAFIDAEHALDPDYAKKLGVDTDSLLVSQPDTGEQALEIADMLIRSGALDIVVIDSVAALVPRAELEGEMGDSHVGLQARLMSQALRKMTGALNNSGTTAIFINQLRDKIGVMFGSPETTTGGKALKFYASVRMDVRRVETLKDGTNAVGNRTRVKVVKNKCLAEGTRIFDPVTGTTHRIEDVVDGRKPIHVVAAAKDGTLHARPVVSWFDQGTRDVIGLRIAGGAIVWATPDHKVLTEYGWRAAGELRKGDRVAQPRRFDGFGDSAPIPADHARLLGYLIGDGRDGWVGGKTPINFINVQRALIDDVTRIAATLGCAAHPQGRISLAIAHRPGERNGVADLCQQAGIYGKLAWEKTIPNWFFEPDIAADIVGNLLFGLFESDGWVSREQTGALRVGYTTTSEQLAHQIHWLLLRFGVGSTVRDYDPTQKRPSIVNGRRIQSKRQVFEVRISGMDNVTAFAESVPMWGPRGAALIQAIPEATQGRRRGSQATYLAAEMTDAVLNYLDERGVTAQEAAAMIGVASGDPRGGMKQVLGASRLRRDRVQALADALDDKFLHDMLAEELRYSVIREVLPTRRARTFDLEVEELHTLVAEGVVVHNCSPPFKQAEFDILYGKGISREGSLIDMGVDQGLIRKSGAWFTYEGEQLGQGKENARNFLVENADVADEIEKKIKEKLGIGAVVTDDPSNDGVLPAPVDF
Description: Fluorescence Cell-Free Homogeneous Dose Retest to Identify Inhibitors of RecA-Intein Splicing Activity. [Related pubchem assays (depositor defined):AID2097, AID2223, AID489010, AID492950]. Format: functional.

Experiment [3] addresses T3, Histone-lysine N-methyltransferase NSD2 (Homo sapiens, UniProt O96028).
T3 sequence (O96028 whole entry): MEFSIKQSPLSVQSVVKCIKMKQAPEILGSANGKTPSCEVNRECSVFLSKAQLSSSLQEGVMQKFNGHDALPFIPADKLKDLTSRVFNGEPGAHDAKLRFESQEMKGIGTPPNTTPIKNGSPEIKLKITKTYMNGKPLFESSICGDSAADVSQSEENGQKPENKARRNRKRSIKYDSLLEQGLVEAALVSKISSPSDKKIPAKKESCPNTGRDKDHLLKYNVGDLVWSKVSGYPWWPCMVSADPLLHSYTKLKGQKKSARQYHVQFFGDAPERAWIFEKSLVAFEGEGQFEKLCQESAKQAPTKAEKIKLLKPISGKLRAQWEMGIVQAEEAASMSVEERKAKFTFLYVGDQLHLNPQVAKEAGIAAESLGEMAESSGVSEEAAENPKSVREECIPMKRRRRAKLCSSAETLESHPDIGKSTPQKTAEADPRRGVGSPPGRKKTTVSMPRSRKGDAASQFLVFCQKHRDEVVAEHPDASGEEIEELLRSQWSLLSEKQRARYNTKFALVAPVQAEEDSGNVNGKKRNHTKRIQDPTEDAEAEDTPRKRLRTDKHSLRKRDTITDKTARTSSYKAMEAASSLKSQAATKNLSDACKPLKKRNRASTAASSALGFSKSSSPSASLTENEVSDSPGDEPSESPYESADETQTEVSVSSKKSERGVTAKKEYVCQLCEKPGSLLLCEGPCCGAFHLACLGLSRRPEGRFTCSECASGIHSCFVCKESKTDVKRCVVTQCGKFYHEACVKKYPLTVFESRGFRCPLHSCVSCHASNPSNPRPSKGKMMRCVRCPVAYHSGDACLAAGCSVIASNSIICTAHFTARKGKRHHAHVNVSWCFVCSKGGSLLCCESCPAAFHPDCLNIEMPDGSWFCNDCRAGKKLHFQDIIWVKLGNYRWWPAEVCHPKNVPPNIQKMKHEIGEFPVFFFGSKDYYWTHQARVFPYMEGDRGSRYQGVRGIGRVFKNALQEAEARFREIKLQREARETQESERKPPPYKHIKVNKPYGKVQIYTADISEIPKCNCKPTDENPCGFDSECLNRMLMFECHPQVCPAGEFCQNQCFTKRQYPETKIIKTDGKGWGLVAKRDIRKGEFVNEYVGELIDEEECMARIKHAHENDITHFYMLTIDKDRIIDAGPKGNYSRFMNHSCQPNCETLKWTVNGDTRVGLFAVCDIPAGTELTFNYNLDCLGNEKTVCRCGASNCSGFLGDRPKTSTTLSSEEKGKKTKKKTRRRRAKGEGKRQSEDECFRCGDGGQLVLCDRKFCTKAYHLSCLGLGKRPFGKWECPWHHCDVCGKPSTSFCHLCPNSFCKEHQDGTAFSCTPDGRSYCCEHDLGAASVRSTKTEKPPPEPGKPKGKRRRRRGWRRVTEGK
The class given is biochemical.

Experiment [4] concerns the target T1, Oxysterols receptor LXR-beta. Format: functional, cell-based. This is another data set of the same source.
Experiment [5] in a line: cells. The source holds these as a separate data set.
The target of a further experiment is Major prion protein (Homo sapiens, UniProt P04156). The class given is functional, cell-based.
Experiment [6] can be described thus: A375 melanoma cell cytotoxicity, dose response, counter-screen for MITF inhibitor project, CellTiter-Glo luminescence, dry powder, set 2 (AID 624489).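 Note: actives are compounds lowering A375 viability meaning general cytotoxicity.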 Format: functional, cell-based. The settings on record: A-375.
The nature of experiment [7]: A375 melanoma cell viability loss, dose response, counter-screen for MITF inhibitor project, CellTiter-Glo luminescence, dry powder, set 4 (AID 624364).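 Note: A375 melanoma cells are MITF independent so this is a counter screen.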 Format: functional, cell-based. The following applies: A-375.
The nature of experiment [8]: A2780 ovarian cancer cell cytotoxicity, dose response, cytotoxicity control, plate reader, dry powder samples (AID 743046). The class given is functional, cell-based.
Experiment [9] can be described thus: NIH:OVCAR-3 ovarian cancer cell cytotoxicity, dose response, PAX8 inhibitor project, plate reader, dry powder samples (AID 743044). The class given is functional, cell-based.
Another experiment has as its target Paired box protein Pax-8 (Homo sapiens, UniProt Q06710). The experiment can be described thus: inhibitors of PAX8-driven TPO luciferase reporter, dose response, RMG-I cells, cherry-pick (AID 687027).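 Note: luciferase reporter driven by Pax8 target thyroperoxidase promoter measured by SteadyGlo luminescence.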 Format: functional, cell-based.
A short description of experiment [10]: cytotoxicity in OVCAR8 ovarian cancer cells, dose response, PAX8 project, cell-based, plate reader, dry powder samples (AID 743197). Format: functional. The following applies: OVCAR-8.
The target of another experiment is T4, Aminopeptidase N (Plasmodium falciparum FcB1/Columbia, UniProt O96935).
T4 sequence (O96935 whole entry): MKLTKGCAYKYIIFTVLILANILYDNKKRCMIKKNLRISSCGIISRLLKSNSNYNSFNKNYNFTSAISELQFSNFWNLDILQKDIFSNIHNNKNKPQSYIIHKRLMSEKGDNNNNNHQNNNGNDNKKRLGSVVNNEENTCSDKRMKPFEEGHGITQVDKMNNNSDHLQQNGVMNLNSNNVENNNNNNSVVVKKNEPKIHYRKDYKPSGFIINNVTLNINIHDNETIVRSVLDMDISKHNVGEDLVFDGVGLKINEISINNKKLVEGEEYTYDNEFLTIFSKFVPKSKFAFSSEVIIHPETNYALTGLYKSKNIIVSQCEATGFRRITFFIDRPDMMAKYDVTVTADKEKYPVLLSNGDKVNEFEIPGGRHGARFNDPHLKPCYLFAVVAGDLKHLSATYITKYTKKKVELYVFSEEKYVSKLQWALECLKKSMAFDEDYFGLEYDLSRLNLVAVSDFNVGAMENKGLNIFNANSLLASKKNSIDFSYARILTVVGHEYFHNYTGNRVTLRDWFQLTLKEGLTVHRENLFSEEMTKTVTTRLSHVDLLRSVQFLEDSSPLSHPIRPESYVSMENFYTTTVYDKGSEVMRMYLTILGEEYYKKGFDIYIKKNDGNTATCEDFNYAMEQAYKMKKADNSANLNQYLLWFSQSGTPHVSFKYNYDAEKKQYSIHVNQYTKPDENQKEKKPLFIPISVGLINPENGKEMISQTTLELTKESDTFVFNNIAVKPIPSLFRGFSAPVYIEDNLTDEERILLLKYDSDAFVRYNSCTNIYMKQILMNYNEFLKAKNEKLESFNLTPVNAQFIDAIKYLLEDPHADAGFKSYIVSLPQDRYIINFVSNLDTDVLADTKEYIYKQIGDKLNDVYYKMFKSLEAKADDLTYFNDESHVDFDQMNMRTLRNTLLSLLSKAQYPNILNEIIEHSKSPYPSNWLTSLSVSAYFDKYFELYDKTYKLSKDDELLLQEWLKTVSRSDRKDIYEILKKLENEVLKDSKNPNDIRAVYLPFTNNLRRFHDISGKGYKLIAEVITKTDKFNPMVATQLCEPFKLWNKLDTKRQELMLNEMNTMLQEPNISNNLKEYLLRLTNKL
Description: P. falciparum M1AAP inhibitors, biochemical, fluorogenic H-Leu-NHMec substrate, 1536-well (AID 1445). Further details: species or system Plasmodium falciparum 3D7, 3D7.

Experiment [11] addresses Induced myeloid leukemia cell differentiation protein Mcl-1 (Homo sapiens, UniProt Q07820). Format: functional.
The target of another experiment is Large T antigen (Simian virus 40, UniProt P03070). The class given is functional, Betapolyomavirus macacae.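 Note: Confirmatory-stage PubChem screen for compounds that inhibit SV40 T antigen.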
Chain of Large T antigen (P03070 whole entry): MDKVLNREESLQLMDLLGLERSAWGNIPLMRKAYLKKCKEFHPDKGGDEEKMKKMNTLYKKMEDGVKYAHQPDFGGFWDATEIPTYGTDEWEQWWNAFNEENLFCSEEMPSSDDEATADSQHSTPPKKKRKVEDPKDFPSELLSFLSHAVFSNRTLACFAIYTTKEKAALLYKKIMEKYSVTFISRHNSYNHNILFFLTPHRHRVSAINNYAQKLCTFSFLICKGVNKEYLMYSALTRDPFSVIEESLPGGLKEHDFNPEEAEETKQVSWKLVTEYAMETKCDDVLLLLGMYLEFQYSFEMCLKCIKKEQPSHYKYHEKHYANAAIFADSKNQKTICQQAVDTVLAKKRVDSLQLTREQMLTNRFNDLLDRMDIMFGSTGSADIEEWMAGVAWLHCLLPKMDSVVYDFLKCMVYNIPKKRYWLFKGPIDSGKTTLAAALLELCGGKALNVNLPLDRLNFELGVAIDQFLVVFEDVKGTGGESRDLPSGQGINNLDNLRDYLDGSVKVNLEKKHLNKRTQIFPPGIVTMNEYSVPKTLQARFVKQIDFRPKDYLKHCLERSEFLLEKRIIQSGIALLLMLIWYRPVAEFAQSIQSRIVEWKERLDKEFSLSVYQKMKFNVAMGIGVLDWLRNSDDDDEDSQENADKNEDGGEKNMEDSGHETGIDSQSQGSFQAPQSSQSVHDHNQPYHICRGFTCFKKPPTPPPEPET
Experiment [12] concerns the target T5, Heat shock factor protein 1 (Mus musculus, UniProt P38532).
T5 sequence (P38532 whole entry): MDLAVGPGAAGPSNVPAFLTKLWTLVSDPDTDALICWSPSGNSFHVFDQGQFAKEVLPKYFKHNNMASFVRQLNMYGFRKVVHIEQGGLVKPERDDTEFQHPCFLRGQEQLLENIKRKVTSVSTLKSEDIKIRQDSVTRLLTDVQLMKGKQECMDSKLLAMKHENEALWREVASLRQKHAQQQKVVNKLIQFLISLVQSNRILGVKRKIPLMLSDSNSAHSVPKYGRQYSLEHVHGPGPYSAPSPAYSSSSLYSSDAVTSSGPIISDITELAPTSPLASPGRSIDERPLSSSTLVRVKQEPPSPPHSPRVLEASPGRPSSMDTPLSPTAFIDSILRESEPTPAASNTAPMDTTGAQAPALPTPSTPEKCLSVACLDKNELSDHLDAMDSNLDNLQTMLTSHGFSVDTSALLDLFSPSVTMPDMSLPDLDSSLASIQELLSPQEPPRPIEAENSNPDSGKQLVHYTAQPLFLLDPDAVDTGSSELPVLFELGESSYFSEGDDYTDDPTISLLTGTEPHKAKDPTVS
Description: HSF1 potentiators in luciferase reporter cells, confirmation, cell-based, NIH3T3, luminescence, dose retest (AID 435004).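 Note: stress induced by proteasome inhibitor MG132 added 30 min after compound; luciferase reporter driven by HSF1 response element in NIH3T3 cells; actives raise luminescence as potentiators of the MG132 stress response.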 Format: functional.

Chain of Induced myeloid leukemia cell differentiation protein Mcl-1 (Q07820 whole entry): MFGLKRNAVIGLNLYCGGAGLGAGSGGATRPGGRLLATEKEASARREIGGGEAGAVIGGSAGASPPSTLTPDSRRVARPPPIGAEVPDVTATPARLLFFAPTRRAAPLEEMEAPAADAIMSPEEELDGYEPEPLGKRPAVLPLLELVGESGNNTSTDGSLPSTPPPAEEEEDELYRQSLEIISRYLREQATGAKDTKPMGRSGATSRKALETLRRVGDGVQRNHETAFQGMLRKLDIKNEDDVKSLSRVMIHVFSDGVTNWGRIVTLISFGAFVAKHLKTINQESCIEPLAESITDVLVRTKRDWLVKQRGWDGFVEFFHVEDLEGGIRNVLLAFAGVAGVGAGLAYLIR
Chain of Paired box protein Pax-8 (Q06710 whole entry): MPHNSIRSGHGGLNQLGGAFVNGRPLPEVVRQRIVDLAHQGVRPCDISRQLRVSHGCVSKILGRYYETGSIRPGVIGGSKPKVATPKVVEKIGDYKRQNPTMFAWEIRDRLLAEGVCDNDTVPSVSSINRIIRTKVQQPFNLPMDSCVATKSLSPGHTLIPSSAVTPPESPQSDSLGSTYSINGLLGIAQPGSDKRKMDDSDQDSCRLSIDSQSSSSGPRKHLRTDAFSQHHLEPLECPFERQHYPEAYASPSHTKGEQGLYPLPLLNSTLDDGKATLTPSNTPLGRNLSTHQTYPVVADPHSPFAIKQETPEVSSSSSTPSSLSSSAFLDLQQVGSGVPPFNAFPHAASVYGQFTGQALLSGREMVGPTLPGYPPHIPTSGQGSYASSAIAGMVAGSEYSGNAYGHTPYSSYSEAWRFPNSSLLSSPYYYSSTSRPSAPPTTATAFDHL

With `Cc1ccc(-c2noc(-c3ccccc3Br)n2)cc1`, the EC50 (in “cells [1]”; in experiment [2]) was > 67.5 µM (inactive) each time.
Turning to `OCCN=C(S)Nc1ccc2nsnc2c1`, the EC50 at Protein RecA was 26 µM (active). The concentration at half-maximal activity (AC50) in experiment [3] is 10.5 µM (active).
In the case of `Cc1ccc(/C=N/NC(=O)c2ccoc2C)s1`, the EC50 in [4] was > 67.6 µM (inactive).
With `CC1(C)Cc2ccccc2-c2nc(S)nc(O)c21`, the IC50 in the experiment “cells [5]” is > 138 µM (inactive).
Regarding `CCOC(=O)CSc1nc(-c2ccccc2)nc2ccccc12`, the IC50 is > 138 µM (inactive) in “cells [5]” and 1.73 µM (active) on Major prion protein.
For `CCOC(=O)CSc1nc(COc2ccccc2)nc2ccccc12`, the values for the IC50 in “cells [5]” and at Major prion protein were > 138 µM (inactive) and 8.25 µM (active), respectively.
For `CCN(CC)CCCNC1=C(N(C)C(C)=O)C(=O)c2ccccc2C1=O`, the concentration at half-maximal activity (AC50) in experiment [6] was 2.91 µM (active); in experiment [7], 5.33 µM (active).
For the compound `Cc1ccccc1S(=O)(=O)N1CC[C@@H]2[C@H](CO)Nc3ccc(-c4cccc(F)c4)cc3[C@@H]21`, the AC50 is 0.711 µM (active) in experiment [8], 53.8 µM (active) in [9], 13.6 µM (active) at Paired box protein Pax-8 and 46.7 µM (active) in [10].
For `CC1(C)Cc2ccccc2-c2[nH]c(=S)[nH]c(=O)c21`, the IC50 at Major prion protein was 4.55 µM (active).
Regarding `COc1cc(/C=C2/C(=N)N3N=C(c4ccc(C)cc4)SC3=NC2=O)ccc1O`, the IC50 is 66.1 µM (active) on Aminopeptidase N, 3.26 µM (active) in experiment [11] and 7.62 µM (active) at Large T antigen. Further, in experiment [4], the EC50 is > 67.5 µM (inactive).
For `CC(=O)NC1=C(c2ccc(Oc3ccccc3)cc2)C(=O)c2ccccc2C1=O`, the AC50 in experiment [6] was 31.2 µM (active); in experiment [7], 59 µM (active).
On to `Cc1ccc2oc(-c3cccc(N)c3)nc2c1`, for which the EC50 is > 67.6 µM (inactive) in [4] and > 260 µM (inconclusive) in [12].
